Test results published in ChEMBL document CHEMBL1201862, “PubChem BioAssay data set” (2004).
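Method: 48-hour compound exposure of cells in 96-well plates, five concentrations, linear interpolation of endpoints. GI50 is the concentration that inhibits growth by half.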 The source made the active and inactive calls. Rule as the data show it: active = GI50 up to about 1.1 µM and inactive = higher.

Legend:
Test in all cases: inhibition of tumour cell growth, NCI panel, 48 h
[1] = system: MDA-MB-435
[2] = system: HCT-15
[3] = system: UACC-257
[4] = system: SR
[5] = system: 786-0
[6] = system: OVCAR-4
[7] = system: LXFL 529
[8] = system: U-251
[9] = system: MCF7
[10] = system: OVCAR-5
[11] = system: HL-60
[12] = system: NCI-H522
[13] = system: SK-OV-3
[14] = system: T47D
[15] = system: MOLT-4
[16] = system: NCI-H23
[17] = system: TK-10
[18] = system: SK-MEL-5
[19] = system: LOX IMVI
[20] = system: RPMI-8226

| SMILES | GI50 [1] | GI50 [2] | GI50 [3] | GI50 [4] | GI50 [5] | GI50 [6] | GI50 [7] | GI50 [8] | GI50 [9] | GI50 [10] | GI50 [11] | GI50 [12] | GI50 [13] | GI50 [14] | GI50 [15] | GI50 [16] | GI50 [17] | GI50 [18] | GI50 [19] | GI50 [20] |
| --- | --- | --- | --- | --- | --- | --- | --- | --- | --- | --- | --- | --- | --- | --- | --- | --- | --- | --- | --- | --- |
| Oc1cc(-c2cccc(F)c2)nc2cc3c(cc12)OCO3 | 0.0112 µM (active) | 0.0711 µM | 0.0236 µM (active) | 0.0241 µM (active) | 0.0441 µM (active) | 1.26 µM (inactive) | 0.463 µM (active) | 0.0757 µM (active) | 0.108 µM (active) | 0.345 µM (active) | 0.0313 µM (active) | 0.029 µM (active) | 0.0698 µM (active) | > 100 µM (inactive) | 0.136 µM (active) | 0.294 µM (active) | 0.879 µM (active) | 0.03 µM (active) | 0.0692 µM (active) | 0.0581 µM (active) |
| Cc1nc2ccccc2c(=O)n1NC(=S)Nc1ccc(Cl)cc1[N+](=O)[O-] | > 100 µM (inactive) | > 100 µM | > 100 µM (inactive) | > 100 µM (inactive) | > 100 µM (inactive) | > 100 µM (inactive) | > 100 µM (inactive) | > 100 µM (inactive) | > 100 µM (inactive) | – | > 100 µM (inactive) | > 100 µM (inactive) | > 100 µM (inactive) | > 100 µM (inactive) | > 100 µM (inactive) | > 100 µM (inactive) | > 100 µM (inactive) | > 100 µM (inactive) | – | > 100 µM (inactive) |
| CCCN(CCCCC(NC(C)=O)C(=O)NCc1ccccc1)C(=O)N(CCCl)N=O (stereo not drawn) | > 100 µM (inactive) | > 100 µM | > 100 µM (inactive) | 19.3 µM (inactive) | 2.33 µM (inactive) | > 100 µM (inactive) | > 100 µM (inactive) | 15.8 µM (inactive) | 40 µM (inactive) | > 100 µM (inactive) | 22.3 µM (inactive) | > 82.2 µM (inactive) | > 100 µM (inactive) | 78.9 µM (inactive) | 36.3 µM (inactive) | 49.9 µM (inactive) | > 100 µM (inactive) | > 77.8 µM (inactive) | 22.9 µM (inactive) | 98.2 µM (inactive) |
